Source: US7419965B2, “Nucleotide lipid ester derivatives” (Heidelberg Pharma AG, priority 2003, dated 2008)

Assays:
Set-up in all cases: species or system nude mice
[1] = system: human breast carcinoma xenograft MDA-MB-231; experiment: Antitumor activity in human breast carcinoma xenograft model (MDA-MB-231) in vivo; settings: for Tumor inhibition: day 49, vs vehicle control; for Tumor volume (median): orally once daily days 21-25 and 28-32, day 49
Protocol: The antitumor activity of nucleotide conjugate and its corresponding nucleoside has been compared in the human breast carcinoma xenograft MDA-MB-231 model in nude mice.
Tumor bearing mice were randomized on day 21 after MDA-MB-231 tumor cell inoculation and were distributed to treatment groups of 9 animals per group. Treatment was started on day 21. At this time point the animals had well vascularized tumors of about 400 mg. The animals were treated orally once daily for 2 weeks with nucleotide conjugate and its corresponding nucleoside on days 21-25 and 28-32. Doses ranged from 6.25% to 50% of the Maximum Tolerable Doses (MTD's). Control animals were treated with the solvent (vehicle) only. […]

[2] = system: human cervix carcinoma xenograft KB-3-1; experiment: Antitumor activity in human cervix carcinoma xenograft model (KB-3-1) in vivo; settings: for Tumor inhibition: day 29, vs vehicle control; for Tumor volume (median): ip once daily days 8-12, day 29
Protocol: The antitumor activity of nucleotide conjugate and nucleoside has been compared in the human cervix carcinoma xenograft KB-3-1 model in nude mice.
Tumor bearing mice were randomized on day 8 after KB-3-1 tumor cell inoculation and were distributed to treatment groups of 9 animals per group. Treatment was started on day 8. The animals were treated intraperitoneally (ip) once daily for 5 consecutive days (days 8-12) with nucleotide conjugate or nucleoside. Dosages included 100 and 50% of the Maximum Tolerable Doses (MTD's). Control animals were injected with solvent (Vehicle).
(§1) Tumor bearing mice were distributed to treatment groups of 9-10 animals per group. Treatment Treatment cycle(s)(one or two) were performed consisting of once daily intraperitoneal administrations for 5 consecutive days. Dosages were in the range of 6.25% and 100% of the Maximum Tolerated Doses (MTD's). Control animals were treated with solvent (vehicle) only, The percentage of tumor inhibition refers to the median tumor size of the vehicle treated control group and dose groups at the end of each experiment.

[3] = system: human colon carcinoma xenograft HCT-15; experiment: Antitumor activity in human colon carcinoma xenograft model (HCT-15) in vivo; settings: for Tumor weight (median): ip once daily for 5 days from day 8, day 28; for Tumor inhibition: ip once daily for 5 days, day 28, vs vehicle control
Protocol: The antitumor activity of the nucleotide conjugate and its corresponding nucleoside has been compared in the human colon carcinoma xenograft HCT-15 model in nude mice.
Tumor bearing mice were randomized on day 7 after HCT-15 tumor cell inoculation and were distributed to treatment groups of 9 animals per group. Treatment was started on day 8. The animals were treated intraperitoneally (ip) once daily for 5 consecutive days with the nucleotide conjugate or the nucleoside. Dosages included 50 and 25% of the Maximum Tolerable Doses (MTD′s). Control animals were injected with the corresponding solvents (Vehicle 1 or 2). On day 28, the primary tumors were explanted and the tumor weights were determined.
as §1

[4] = system: human pancreatic carcinoma xenograft AspC1; experiment: Antitumor activity in human pancreatic carcinoma xenograft model (AspC1) in vivo; settings: for Tumor inhibition: day 30, vs vehicle control; for Tumor weight (median): ip once daily day 6-10 and 20-23, day 30
Protocol: The antitumor activity of nucleotide conjugate and nucleoside has been compared in the human pancreatic carcinoma xenograft AspC1 model in nude mice.
(§2) Tumor bearing mice were randomized on day 6 after AspC1 tumor cell inoculation and were distributed to treatment groups of 10 animals per group. Treatment was started on day 6. The animals were treated intraperitoneally (ip) once daily on day 6-10 and 20-23 with nucleotide conjugate or nucleoside. Dosages included 100 and 50% of the Maximum Tolerable Doses (MTD's). Control animals were treated with solvent (vehicle) only.
as §1

[5] = system: human ovarian carcinoma xenograft SKOV-3; experiment: Antitumor activity in human ovarian carcinoma xenograft model (SKOV-3) in vivo; settings: for Tumor inhibition: end of treatment period (day 17), vs vehicle control; for Tumor volume (median): ip once daily day 6-10 and 13-17, end of treatment (day 17)
Protocol: The antitumor activity of nucleotide conjugate and nucleoside has been compared in the human ovarian carcinoma xenograft SKOV-3 model in nude mice.
as §2, with “after SKOV-3” for “after AspC1”, “of 9” for “of 10”, “and 13-17” for “and 20-23”, “Dosages ranged between 6.25” for “Dosages included 100”, “and 100%” for “and 50%”
as §1

[6] = system: human prostate carcinoma xenograft PC-3; experiment: Antitumor activity in human prostate carcinoma xenograft model (PC-3) in vivo; settings: for Tumor inhibition: day 52, vs vehicle control; for Tumor weight (median): ip once daily for 5 days from day 7, day 52
Protocol: The antitumor activity of nucleoside conjugate and nucleoside has been compared in the human prostate carcinoma xenograft PC-3 model in nude mice.
Tumor bearing mice were randomized on day 7 after PC-3 tumor cell inoculation and were distributed to treatment groups of n=10 animals per group. Treatment was started on day 7. The animals were treated intraperitoneally (ip) once daily for 5 consecutive days with nucleotide conjugate or nucleoside. Dosages included 100 and 50% of the Maximum Tolerable Doses (MTD's). Control animals were treated with the corresponding solvent (vehicle) only. On day 52, the primary tumors were explanted and the tumor weights were determined.
as §1

[7] = 6.25% MTD (nucleoside 2.5, conjugate 12.5 mg/kg)
[8] = 12.50% MTD (nucleoside 5.0, conjugate 25.0 mg/kg)
[9] = 25.00% MTD (nucleoside 10.0, conjugate 50.0 mg/kg)
[10] = 50.00% MTD (nucleoside 20.0, conjugate 100.0 mg/kg)
[11] = 50% MTD (nucleoside 20, conjugate 50 mg/kg/injection)
[12] = 100% MTD (nucleoside 40, conjugate 100 mg/kg/injection)
[13] = 25% MTD (nucleoside 20, conjugate 63 mg/kg/injection)
[14] = 50% MTD (nucleoside 40, conjugate 125 mg/kg/injection)
[15] = HCT-15, Dose 50.00 % MTD as printed in summary table
[16] = HCT-15, Dose 100.00 % MTD as printed in summary table
[17] = 50% MTD (nucleoside 15.0, conjugate 37.5 mg/kg/injection)
[18] = 100% MTD (nucleoside 30.0, conjugate 75.0 mg/kg/injection)
[19] = 25% MTD (nucleoside 7.5, conjugate 18.8 mg/kg/injection)

Nc1nc(Cl)nc2c1ncn2[C@@H]1O[C@H](CO)[C@@H](O)[C@@H]1F [Nucleoside, 2-Chloro-9-(2′-deoxy-2′-fluoro-β-D arabinofuranosyl)adenine, reference compound]
Tumor inhibition [1, 7]: 46% | Tumor volume (median) [1, 7]: 1862 mm^3 | Tumor inhibition [1, 8]: 84% | Tumor volume (median) [1, 8]: 550 mm^3 | Tumor inhibition [1, 9]: 95% | Tumor volume (median) [1, 9]: 172 mm^3 | Tumor inhibition [1, 10]: 97% | Tumor volume (median) [1, 10]: 108 mm^3 | Tumor inhibition [2, 11]: 68% | Tumor volume (median) [2, 11]: 1059 mm^3 | Tumor inhibition [2, 12]: 49% | Tumor volume (median) [2, 12]: 1705 mm^3 | Tumor weight (median) [3, 13]: 431 mg | Tumor inhibition [3, 13]: 25% | Tumor weight (median) [3, 14]: 329 mg | Tumor inhibition [3, 14]: 42% | Tumor inhibition (summary table) [3, 15]: 25% | Tumor inhibition (summary table) [3, 16]: 42% | Tumor inhibition [4, 17]: 30% | Tumor weight (median) [4, 17]: 160 mg | Tumor inhibition [4, 18]: 35% | Tumor weight (median) [4, 18]: 150 mg | Tumor inhibition [5, 19]: 37% | Tumor volume (median) [5, 19]: 162 mm^3 | Tumor inhibition [5, 17]: 58% | Tumor volume (median) [5, 17]: 108 mm^3 | Tumor inhibition [5, 18]: 51% | Tumor volume (median) [5, 18]: 126 mm^3 | Tumor inhibition [6, 11]: 40% | Tumor weight (median) [6, 11]: 303 mg | Tumor inhibition [6, 12]: 60% | Tumor weight (median) [6, 12]: 202 mg

CCCCCCCCCCCCSCC(COP(=O)(O)OC[C@H]1O[C@@H](n2cnc3c(N)nc(Cl)nc32)[C@@H](F)[C@@H]1O)OCCCCCCCCCC (stereo partly drawn) [Nucleotide conjugate, [2-Chloro-9-(2′-deoxy-2′-fluoro-β-D arabinofuranosyl)adenine]-5′-phosphoric acid-(3-dodecylmercapto-2-decyloxy)propyl ester]
Tumor inhibition [1, 7]: 63% | Tumor volume (median) [1, 7]: 1267 mm^3 | Tumor inhibition [1, 8]: 94% | Tumor volume (median) [1, 8]: 196 mm^3 | Tumor inhibition [1, 9]: 97% | Tumor volume (median) [1, 9]: 108 mm^3 | Tumor inhibition [1, 10]: 99% | Tumor volume (median) [1, 10]: 51 mm^3 | Antitumor efficacy compared with the corresponding nucleoside ([1]; at all doses): significantly (p <0.05) higher | Activity relative to nucleoside (conclusion) ([1]; conclusion of summary, MDA-MB-231): Superior activity | Tumor inhibition [2, 11]: 74% | Tumor volume (median) [2, 11]: 877 mm^3 | Tumor inhibition [2, 12]: 97% | Tumor volume (median) [2, 12]: 104 mm^3 | Antitumor efficacy compared with Nucleoside ([2]; at the MTD): significantly higher (p<0.01) | Activity relative to nucleoside (conclusion) ([2]; conclusion of summary, KB-3-1): Superior activity | Tumor weight (median) [3, 13]: 257 mg | Tumor inhibition [3, 13]: 62% | Tumor weight (median) [3, 14]: 16 mg | Tumor inhibition [3, 14]: 98% | Tumor inhibition (summary table) [3, 15]: 62% | Tumor inhibition (summary table) [3, 16]: 98% | Antitumor efficacy compared with the corresponding nucleoside ([3]; at both doses): significantly (p<0.01) higher | Activity relative to nucleoside (conclusion) ([3]; conclusion of summary, human colon carcinoma xenograft): Superior activity | Tumor inhibition [4, 17]: 65% | Tumor weight (median) [4, 17]: 80 mg | Tumor inhibition [4, 18]: 96% | Tumor weight (median) [4, 18]: 10 mg | Antitumor efficacy compared with Nucleoside ([4]; at both doses): significantly higher (p<0.01) | Activity relative to nucleoside (conclusion) ([4]; conclusion of summary, AspC1): Superior activity | Tumor inhibition [5, 19]: 44% | Tumor volume (median) [5, 19]: 144 mm^3 | Tumor inhibition [5, 17]: 58% | Tumor volume (median) [5, 17]: 108 mm^3 | Tumor inhibition [5, 18]: 75% | Tumor volume (median) [5, 18]: 63 mm^3 | Antitumor efficacy compared with the nucleoside ([5]; at MTD): significantly higher (p<0.01) | Activity relative to nucleoside (conclusion) ([5]; conclusion of summary, SKOV-3): Superior activity | Tumor inhibition [6, 11]: 82% | Tumor weight (median) [6, 11]: 92 mg | Tumor inhibition [6, 12]: 87% | Tumor weight (median) [6, 12]: 64 mg | Antitumor efficacy compared with Nucleoside ([6]; at both doses): significantly higher (p<0.01) | Activity relative to nucleoside (conclusion) ([6]; conclusion of summary, PC-3): Superior activity
